The results in this text go back to patent US7425640B2, “Substituted 5-carboxyamide pyrazoles and [1,2,4]triazoles as antiviral agents” (priority 2004, dated 2008).

In general, IC50 refers to the midpoint of a concentration-inhibition curve.

The target in one experiment is HCV RNA-dependent RNA polymerase NS5B (Δ21) (Hepatitis C virus genotype 1b, UniProt P26663). The experiment is described as follows: Assay for HCV RNA-dependent RNA polymerase activity (SPA, [3H]-GTP incorporation). The following applies: read-out: Δ21 Activity (IC50 μM); 50 nM NS5B (Δ21), class symbols. The experiment is classed as biochemical. An outline of the steps: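 NS5B (Δ21), 50 nM, was incubated 3 h at room temperature with biotinylated oligoG12/polyC template, 5 μM GTP plus [3H]-GTP, in HEPES pH 7.3 with MgCl2 and NaCl. [3H]-GTP incorporation was read by streptavidin SPA. IC50 came from single experiments across 11 two-fold dilutions (0.05–50 μM).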
HCV RNA-dependent RNA polymerase NS5B (Δ21), sequence (P26663 2420-2989, stated change not applied): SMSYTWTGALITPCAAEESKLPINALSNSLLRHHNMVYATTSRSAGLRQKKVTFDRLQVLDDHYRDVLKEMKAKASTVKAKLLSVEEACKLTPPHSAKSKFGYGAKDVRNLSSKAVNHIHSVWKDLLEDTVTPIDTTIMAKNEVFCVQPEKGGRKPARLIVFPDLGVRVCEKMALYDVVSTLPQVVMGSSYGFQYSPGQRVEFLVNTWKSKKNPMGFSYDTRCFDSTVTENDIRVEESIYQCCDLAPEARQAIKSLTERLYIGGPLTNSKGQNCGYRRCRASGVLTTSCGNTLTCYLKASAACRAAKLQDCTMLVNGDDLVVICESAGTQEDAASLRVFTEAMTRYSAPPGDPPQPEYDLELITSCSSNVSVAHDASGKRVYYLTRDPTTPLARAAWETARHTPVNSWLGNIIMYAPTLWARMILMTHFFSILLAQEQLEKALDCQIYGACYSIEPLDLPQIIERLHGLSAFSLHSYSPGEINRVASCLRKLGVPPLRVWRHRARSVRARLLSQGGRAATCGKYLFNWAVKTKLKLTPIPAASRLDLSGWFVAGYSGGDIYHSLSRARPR
In the case of `CON(C)C(=O)c1cc(C(=O)N[C@H]2CCCC[C@@H]2OCc2ccccc2)n(CC(=O)N[C@H]2CCCC[C@@H]2OCc2ccccc2)n1` [Compound 109], the IC50 fell in the range of 0.1 to 1 µM.

In the case of `Cc1c(S(=O)(=O)Nc2cc(C(=O)N[C@H]3CCCC[C@@H]3OCc3ccccc3)n(CC(=O)N[C@H]3CCCC[C@@H]3OCc3ccccc3)n2)sc2ccc(Cl)cc12` [Compound 90], the half-inhibitory concentration (IC50) lay within 0.1 to 1 µM.

As to `O=C(Cn1nc(C(=O)NCCc2ccc(Cl)cc2)cc1C(=O)N[C@H]1CCCC[C@@H]1OCc1ccccc1)N[C@H]1CCCC[C@@H]1OCc1ccccc1` [Compound 129], the concentration for half-maximal inhibition (IC50) fell in the range of 0.1 to 1 µM.

Consider `CC1CCC(OCc2ccccc2)C(NC(=O)c2cc(C(=O)O)nn2CS(=O)(=O)N[C@H]2CCCC[C@@H]2OCc2ccccc2)C1` (stereo partly drawn) [Compound 89], for which the IC50 was in the range of 0.1 to 1 µM.

Take `O=C(Cn1nc(C(=O)O)cc1C(=O)N[C@H]1CCCC[C@@H]1NCc1ccccc1)N[C@H]1CCCC[C@@H]1OCc1ccccc1` [Compound 120]: the 50% inhibitory concentration (IC50) lay within 0.1 to 1 µM.

For `CNC(=O)c1cc(C(=O)N[C@H]2CCCC[C@@H]2OCc2ccccc2)n(CC(=O)N[C@H]2CCCC[C@@H]2OCc2ccccc2)n1` [Compound 145], the concentration for half-maximal inhibition (IC50) fell in the range of 0.1 to 1 µM.

As to `NC(=O)c1cc(C(=O)N[C@H]2CCCC[C@@H]2OCc2ccccc2)n(CC(=O)N[C@H]2CCCC[C@@H]2OCc2ccccc2)n1` [Compound 157], the 50% inhibitory concentration (IC50) lay within 0.1 to 1 µM.

On to `O=C(Cn1nc(NC(=O)NC2CCCCC2)cc1C(=O)N[C@H]1CCCC[C@@H]1OCc1ccccc1)N[C@H]1CCCC[C@@H]1OCc1ccccc1` [Compound 118], for which the IC50 was 0.1 to 1 µM.

In the case of `CC(C)C(=O)c1cc(C(=O)N[C@H]2CCCC[C@@H]2OCc2ccccc2)n(CC(=O)N[C@H]2CCCC[C@@H]2OCc2ccccc2)n1` [Compound 63], the half-maximal inhibitory concentration (IC50) is 0.1 to 1 µM.

Turning to `O=C(Cn1nc(NC(=O)C(F)(F)F)cc1C(=O)N[C@H]1CCCC[C@@H]1OCc1ccccc1)N[C@H]1CCCC[C@@H]1OCc1ccccc1` [Compound 75], the half-maximal inhibitory concentration (IC50) lay in the range of 0.1 to 1 µM.

`O=C(O)c1cc(C(=O)N[C@H]2CCCC[C@@H]2OCc2ccccc2)n(CS(=O)(=O)N[C@H]2CCCC[C@@H]2OCc2ccccc2)n1` [Compound 57]: the IC50 lay in the range of 0.1 to 1 µM.

As for `O=C(Cn1nc(NC(=O)Nc2ccccc2)cc1C(=O)N[C@H]1CCCC[C@@H]1OCc1ccccc1)N[C@H]1CCCC[C@@H]1OCc1ccccc1` [Compound 102], the half-maximal inhibitory concentration (IC50) was 0.1 to 1 µM.

Consider `CS(=O)(=O)Nc1cc(C(=O)N[C@H]2CCCC[C@@H]2OCc2ccccc2)n(CC(=O)N[C@H]2CCCC[C@@H]2OCc2ccccc2)n1` [Compound 60], for which the IC50 is 0.1 to 1 µM.

Turning to `CN(C(=O)c1cc(C(=O)O)nn1CC(=O)N[C@H]1CCCC[C@@H]1OCc1ccccc1)[C@H]1CCCC[C@@H]1OCc1ccccc1` [Compound 133], the half-maximal inhibitory concentration (IC50) lay within 0.1 to 1 µM.

As to `O=C(O)CCCCCNC(=O)CCCCCNC(=O)c1cc(C(=O)N[C@H]2CCCC[C@@H]2OCc2ccccc2)n(CC(=O)N[C@H]2CCCC[C@@H]2OCc2ccccc2)n1` [Compound 165], the concentration for half-maximal inhibition (IC50) was in the range of 0.1 to 1 µM.

As to `O=C(Cn1nc(C(=O)NOCc2ccccc2)cc1C(=O)N[C@H]1CCCC[C@@H]1OCc1ccccc1)N[C@H]1CCCC[C@@H]1OCc1ccccc1` [Compound 53], the IC50 lay in the range of 0.1 to 1 µM.

Still in this experiment, the particulars now being: Δ21 Activity (IC50 μM), 50 nM NS5B (Δ21), class symbols.
On to `O=C(Cn1nc(C(=O)Cc2ccccc2)cc1C(=O)N[C@H]1CCCC[C@@H]1OCc1ccccc1)N[C@H]1CCCC[C@@H]1OCc1ccccc1` [Compound 182], for which the IC50 was more than 1 µM.

Take `O=C(Cn1nc(NS(=O)(=O)C(F)(F)F)cc1C(=O)N[C@H]1CCCC[C@@H]1OCc1ccccc1)N[C@H]1CCCC[C@@H]1OCc1ccccc1` [Compound 26]: the IC50 was 0.05 to 0.1 µM.

In turn, `COc1ccc(S(=O)(=O)Nc2cc(C(=O)N[C@H]3CCCC[C@@H]3OCc3ccccc3)n(CC(=O)N[C@H]3CCCC[C@@H]3OCc3ccccc3)n2)cc1` [Compound 41] registered an IC50 of 0.05 to 0.1 µM.

`C[C@@H](NC(=O)c1cc(C(=O)N[C@H]2CCCC[C@@H]2OCc2ccccc2)n(CC(=O)N[C@H]2CCCC[C@@H]2OCc2ccccc2)n1)c1cccc2ccccc12` [Compound 7] yielded a 50% inhibitory concentration (IC50) of less than 0.05 µM.

For `O=C(Cn1nc(NS(=O)(=O)c2cccc(F)c2)cc1C(=O)N[C@H]1CCCC[C@@H]1OCc1ccccc1)N[C@H]1CCCC[C@@H]1OCc1ccccc1` [Compound 31], the IC50 fell in the range of 0.05 to 0.1 µM.

`Cc1cc(Oc2ccccc2NC(=O)Cn2nc(C(=O)O)cc2C(=O)N[C@H]2CCCC[C@@H]2OCc2ccccc2)ccc1Cl` [Compound 23] showed a half-maximal inhibitory concentration (IC50) of 0.05 to 0.1 µM.

In the case of `CC(C)(O)c1cc(C(=O)N[C@H]2CCCC[C@@H]2OCc2ccccc2)n(CC(=O)N[C@H]2CCCC[C@@H]2OCc2ccccc2)n1` [Compound 190], the half-inhibitory concentration (IC50) is more than 1 µM.

With `O=C(Cn1nc(C(=O)O)cc1C(=O)Nc1ccc(F)cc1OCC1CCCCC1)N[C@H]1CCCC[C@@H]1OCc1ccccc1` [Compound 30], the 50% inhibitory concentration (IC50) is 0.05 to 0.1 µM.

Take `Cc1ccc(OCC2CCCC2)c(NC(=O)Cn2nc(C(=O)O)cc2C(=O)N[C@H]2CCCC[C@@H]2OCc2ccccc2)c1` [Compound 34]: the IC50 lay within 0.05 to 0.1 µM.

`Cc1ccc(OCc2ccccc2)c(NC(=O)c2cc(-c3nnn[nH]3)nn2CC(=O)N[C@H]2CCCC[C@@H]2OCc2ccccc2)c1` [Compound 1] gave an IC50 of less than 0.05 µM.

The molecule `O=C(Cn1nc(C(=O)O)cc1C(=O)N[C@H]1CCCC[C@@H]1OCc1ccccc1)NC1CCCC[C@@H]1N1CCOCC1` (stereo partly drawn) [Compound 211] yielded a 50% inhibitory concentration (IC50) of more than 1 µM.

`CCCCC(CC)CNC(=O)c1cc(C(=O)N[C@H]2CCCC[C@@H]2OCc2ccccc2)n(CC(=O)N[C@H]2CCCC[C@@H]2OCc2ccccc2)n1` (stereo partly drawn) [Compound 194] gave an IC50 of more than 1 µM.

Turning to `O=C(Cn1nc(C(=O)NCc2ccc(Cl)cc2)cc1C(=O)N[C@H]1CCCC[C@@H]1OCc1ccccc1)N[C@H]1CCCC[C@@H]1OCc1ccccc1` [Compound 46], the half-inhibitory concentration (IC50) was 0.05 to 0.1 µM.

The molecule `CCOC(=O)CNC(=O)Nc1cc(C(=O)N[C@H]2CCCC[C@@H]2OCc2ccccc2)n(CC(=O)N[C@H]2CCCC[C@@H]2OCc2ccccc2)n1` [Compound 183] yielded an IC50 of more than 1 µM.

Turning to `CCOC(=O)c1cc(C(=O)N[C@H]2CCCC[C@@H]2OCc2ccccc2)n(CC(=O)NC2CCCC[C@@H]2NCc2ccccc2)n1` (stereo partly drawn) [Compound 199], the IC50 was more than 1 µM.

The same experiment, now with this note: Δ21 Activity (IC50 μM), 50 nM NS5B (Δ21), numeric values.
In turn, `O=C(Cn1nc(NS(=O)(=O)c2ccc(O)c(C(=O)O)c2)cc1C(=O)N[C@H]1CCCC[C@@H]1OCc1ccccc1)N[C@H]1CCCC[C@@H]1OCc1ccccc1` showed an IC50 of 0.074 µM.

In turn, `N#CNC(=O)c1cc(C(=O)N[C@H]2CCCC[C@@H]2OCc2ccccc2)n(CC(=O)N[C@H]2CCCC[C@@H]2OCc2ccccc2)n1` [drawing 254] registered an IC50 of 0.042 µM.

The molecule `Cc1ccc(OCC2CCCC2)c(NC(=O)c2cc(C(=O)O)nn2CC(=O)N[C@H]2CCCC[C@@H]2OCc2ccccc2)c1` [drawing 241] displayed a 50% inhibitory concentration (IC50) of 0.023 µM.

Regarding `O=C(Cn1nc(C(=O)O)cc1C(=O)Nc1cc(Br)ccc1OCC1CCCCC1)N[C@H]1CCCC[C@@H]1OCc1ccccc1` [drawing 251], the IC50 was found to be 0.037 µM.

For `Cc1ccc(OCC2CCCCC2)c(NC(=O)c2cc(C(=O)NC#N)nn2CC(=O)N[C@H]2CCCC[C@@H]2OCc2ccccc2)c1` [drawing 243], the IC50 stood at 0.037 µM.
